Assays:
Assay type in all cases: in vivo, rat
Sprague Dawley rats [1] = assay: NIS-L syndrome during Novel Water Maze (NWM) testing; details: for animals exhibiting NIS-L syndrome in NWM: tested PND 240; for animals displaying NIS-L syndrome during NWM testing: separate cohort, tested at 15 months
Experimental: To determine if the syndrome could be elicited by novel stimuli other than the MWM, all rats were tested in the Novel Water Maze (NWM) (Kant, G. J., Pharmacol. Biochem. […]
The Novel Water Maze (NWM) (Kant, G. J., Pharmacol. Biochem. Behav. [1993] 44:287-295) was selected based on its provision of a novel environment within which to evaluate the novelty impact on the precipitation of NIS-L. Animals were tested for 6 consecutive swim trials of 60 sec duration and scored for the presence or absence of NIS-L behaviours, by an observer blind to treatment during the 120 sec inter-trial period.

Sprague Dawley rats [2] = assay: NIS-L syndrome in open field arena; details: male rats; for animals displaying NIS-L in open field arena: tested PND 270
Experimental: To determine if the syndrome could be elicited by novel stimuli other than the MWM, all rats were tested in the Novel Water Maze (NWM) (Kant, G. J., Pharmacol. Biochem. Behav. [1993] 44:287-295) approximately 120 days after the MWM testing (i.e. PND 240).
The open field apparatus consisted of a 1.5 m diameter circular arena sectioned into 32 grids (16 central grids: 9 cm×9 cm; 16 peripheral grids). The open field was chosen as another environment that provided novelty while at the same time being less physiologically challenging than the previously described two water maze tasks. All rats were given a single 10 min trial in the open field arena and scored for the presence or absence of NIS-L by an experimenter blind to treatment. All testing procedures were conducted according to the guidelines of the Canadian Council on Animal Care.

Sprague Dawley rats [3] = assay: Daily assessment of pups until weaning for overt toxicity and weight gain; details: 5 or 20 μg/kg s.c. daily PND 8-PND 14
Experimental: Within 24 hr of birth, offspring of untimed-pregnant Sprague Dawley rats (Charles River Laboratories, St. Constant, PQ) were culled to 10 pups/litter (5 males and 5 females). From post-natal day (PND) 8-PND 14, pups were weighed and given a single daily injection (s.c.; 10 ml/kg) of either saline, or 5 or 20 μg/kg domoic acid (DOM). These doses are well below those normally required to induce toxicity in animals of this age (Doucette, T. A. et al., Neurotox. Teratol. [2003] 25:473-479, and Doucette, T. A., et al., Neurotox. Teratol. [2000] 22:863-869). Pups were assessed daily until weaning (on PND 22) for overt signs of toxicity, and all pre- and post-weaning testing was conducted with the experimenter blind to treatment. All procedures were conducted in accordance with the guidelines of the Canadian Council on Animal Care. […] Rats received no additional drug treatment after PND 14. On PND 120, animals were tested for spatial learning and memory in the Morris Water Maze (MWM) (8 trials/day over 6 consecutive days), using a standard reversal procedure (McNamara, R. K. and Skelton, R. W., Brain Res. Brain Res. Rev. [1993] 18:33-49). […]

Sprague Dawley rats [4] = assay: NIS-L syndrome during Morris Water Maze (MWM) testing
Experimental: Within 24 hr of birth, offspring of untimed-pregnant Sprague Dawley rats (Charles River Laboratories, St. Constant, PQ) were culled to 10 pups/litter (5 males and 5 females). […] These doses are well below those normally required to induce toxicity in animals of this age (Doucette, T. A. et al., Neurotox. Teratol. [2003] 25:473-479, and Doucette, T. A., et al., Neurotox. Teratol. [2000] 22:863-869). Pups were assessed daily until weaning (on PND 22) for overt signs of toxicity, and all pre- and post-weaning testing was conducted with the experimenter blind to treatment. All procedures were conducted in accordance with the guidelines of the Canadian Council on Animal Care. […] Rats received no additional drug treatment after PND 14. On PND 120, animals were tested for spatial learning and memory in the Morris Water Maze (MWM) (8 trials/day over 6 consecutive days), using a standard reversal procedure (McNamara, R. K. and Skelton, R. W., Brain Res. Brain Res. Rev. [1993] 18:33-49). While on the escape platform during the 60 second inter-trial interval, a significant number of DOM-treated rats presented with abnormal behaviour characterized by a combination of hunched body posture, facial clonus, mastication with tongue-protrusion, repetitive head extensions and bobbing, repetitive eye blinking/squinting, and vibrissae and ear twitching, often in combination with forelimb clonus. Presentation of all of the above behaviours was termed “novelty-induced seizure-like (NIS-L) syndrome”. Of note, the expression of this syndrome was not consequent to earlier drug-induced toxicity or seizures, nor was it spontaneous.
The Morris Water Maze (MWM) consisted of a circular tank measuring 1.5 m in diameter. Water temperature was maintained at approximately 21° C. and was made opaque by a layer of polypropylene pellets floated on the surface. Four points around the edge of the pool were arbitrarily designated as north (N), south (S), east (E), and west (W), allowing the apparatus to be divided into 4 corresponding quadrants (NE, SE, NW, SW). A clear plexiglass escape platform was submerged approximately 2 cm below the water surface and placed, initially, in the NE quadrant of the maze (alternate locations for the reversal task were implemented on Day 3 and Day 5). Extra-maze cues consisted of laboratory furniture and lights (held constant throughout the experiment). A video camera was mounted above the center of the pool and all performance was recorded for subsequent analyses. […] Escape latencies and inter-trial behaviour was recorded by observers blind to experimental treatment.

C/C(=C/C=C/[C@@H](C)C(=O)O)[C@H]1CN[C@H](C(=O)O)[C@H]1CC(=O)O [DOM, domoic acid]
animals exhibiting NIS-L syndrome in NWM (Sprague Dawley rats [1]; female rats, 5 μg/kg PND 8-14): 33.3%
animals exhibiting NIS-L syndrome in NWM (Sprague Dawley rats [1]; female rats, 20 μg/kg PND 8-14): 100%
animals displaying NIS-L syndrome during NWM testing (Sprague Dawley rats [1]; female rats, 20 μg/kg PND 8-14): 50%
animals exhibiting NIS-L syndrome in NWM (Sprague Dawley rats [1]; male rats, 5 μg/kg PND 8-14): 33.3%
animals exhibiting NIS-L syndrome in NWM (Sprague Dawley rats [1]; male rats, 20 μg/kg PND 8-14): 66.7%
animals displaying NIS-L syndrome during NWM testing (Sprague Dawley rats [1]; male rats, 20 μg/kg PND 8-14): 50%
animals displaying NIS-L in open field arena (Sprague Dawley rats [2]; 5 μg/kg PND 8-14): 50%
animals displaying NIS-L in open field arena (Sprague Dawley rats [2]; 20 μg/kg PND 8-14): 66.7%
weight gain between groups (Sprague Dawley rats [3]): no significant differences in weight gain
signs of physical or behavioural toxicity prior to weaning (Sprague Dawley rats [3]; pups assessed until PND 22): None of the pups displayed any signs of physical or behavioural toxicity

C=C(C)[C@H]1CN[C@H](C(=O)O)[C@H]1CC(=O)O [KA, kainic acid]
rats with NIS-L syndrome (study parallel in design to Example 1) (Sprague Dawley rats [4]; female rats, 25 μg/kg neonatally): 16.7%
rats with NIS-L syndrome (study parallel in design to Example 1) (Sprague Dawley rats [4]; female rats, 100 μg/kg neonatally): 57.1%
rats with NIS-L syndrome (study parallel in design to Example 1) (Sprague Dawley rats [4]; male rats, 25 μg/kg neonatally): 62.5%
rats with NIS-L syndrome (study parallel in design to Example 1) (Sprague Dawley rats [4]; male rats, 100 μg/kg neonatally): 62.5%
rats exhibiting NIS-L syndrome in open field arena (Sprague Dawley rats [2]; 25 μg/kg neonatally): 62.5%
rats exhibiting NIS-L syndrome in open field arena (Sprague Dawley rats [2]; 100 μg/kg neonatally): 33.3%

Source: US7521589B2, “Developmental animal model of temporal lobe epilepsy” (University of Prince Edward Island, priority 2003, dated 2009)
